The results in this text go back to patent publication US5654411A, “Process for preparing 4-deoxyerythromycin derivatives” (Abbott Laboratories, priority 1995, dated 1997).

The test system of this assay is smooth muscle strips isolated from rabbit small intestine. Briefly: Induction of in vitro rabbit duodenal smooth muscle contraction. The conditions noted are these: for EC50: Oryctolagus cuniculus, rabbit duodenum longitudinal muscle, 37° C., pH 7.5, read-out: pED50 (negative logarithm of the concentration producing half of the maximal contraction) (converted); for Relative Potency: relative to erythromycin A = 1.0. The method, then: The compounds of the present invention were tested in vitro for their ability to induce contraction of smooth muscle strips isolated from rabbit small intestine using the following procedure:
Rabbits were sacrificed and 15 cm of duodenum was rapidly removed and placed in ice-cold modified Ringers solution (120 mM sodium chloride, 25 mM sodium bicarbonate, 4.7 mM potassium chloride, 1.25 mM calcium chloride, 1.20 mM magnesium sulfate and 5.6 mM glucose). The longitudinal muscle layer was separated from the circular muscle by blunt dissection and cut into strips of 10×20 mm. Double-folded strips were vertically suspended between two hooks in 10 mL tissue baths with a mechanical preload of 1 g. The upper hook was connected to an […] force transducer, and its displacement was recorded on a Grass polygraph. The tissue baths contained modified Ringers solution at 37° C. and were continuously gassed with 95% oxygen/5% carbon dioxide in order to maintain the pH at 7.5.
After a stabilization period of at least 60 minutes, a contractility dose-response series was performed by adding increasing final concentrations of methacholine (10^-7 M, 10^-6 M and 10^-5 M) in volumes of 100 μL. The bath solutions were replaced at least three times between doses.
After the methacholine dose-response series was completed, a test compound dose response curve was initiated by the same procedure used for the methacholine dose-response series, with at least five concentrations of test compound within the range of 10^-10 M to 10^-4 M. The tissues were washed repeatedly between doses, and the studies were completed by recording the contractile response to 10^-5 M methacholine to ascertain integrity of the muscle preparation. Contractile responses were expressed as percent of maximal contraction. The concentration of test compound which produces half of the maximal contraction (ED50 value) and the negative logarithm of the ED50 value (PED50) were estimated from the dose-response curves.

Take `CC[C@H]1OC(=O)[C@H](C)[C@@H](O[C@H]2C[C@@](C)(OC)C[C@H](C)O2)[C@H](C)[C@@H](O[C@@H]2O[C@H](C)C[C@H](N(C)C)[C@H]2O)[C@@]2(C)CC(C)=C(O2)[C@H](C)[C@@H](O)[C@]1(C)O` [Example 1, 8,9-Anhydro-4"-deoxyerythromycin A-6,9-hemiketal]: the EC50 was 3.89 nM and the “Relative Potency” value stood at 363.

Regarding `CC[C@H]1OC(=O)[C@H](C)[C@@H](O[C@H]2C[C@@](C)(OC)C[C@H](C)O2)[C@H](C)[C@@H](O[C@@H]2O[C@H](C)C[C@H](N(C)C)[C@H]2O)[C@@]2(C)CC(C)=C(O2)[C@H](C)[C@@H](O)[C@H]1C` [Example 2, 8,9-anhydro-4"-deoxyerythromycin B-6,9-hemiketal], the EC50 was 0.0055 nM and the “Relative Potency” value is listed as 257,039.

Regarding `CC[C@H]1OC(=O)[C@H](C)[C@@H](O[C@H]2C[C@@](C)(OC)C[C@H](C)O2)[C@H](C)[C@@H](O[C@@H]2O[C@H](C)C[C@H](NC)[C@H]2O)[C@@]2(C)CC(C)=C(O2)[C@H](C)[C@@H](O)[C@]1(C)O` [Example 3, 8,9-anhydro-4"-deoxy-3'-N-desmethyl erythromycin A-6,9-hemiketal], the EC50 was 0.182 nM and the “Relative Potency” value is on record as 7,762.

Regarding `CC[C@H]1OC(=O)[C@H](C)[C@@H](O[C@H]2C[C@@](C)(OC)C[C@H](C)O2)[C@H](C)[C@@H](O[C@@H]2O[C@H](C)C[C@H](N(C)CC)[C@H]2O)[C@@]2(C)CC(C)=C(O2)[C@H](C)[C@@H](O)[C@]1(C)O` [Example 4, 8,9-anhydro-4"-deoxy-3'-N-desmethyl-3'-N-ethylerythromycin A-6,9-hemiketal], the EC50 was 0.00316 nM and the “Relative Potency” value is listed as 199,526.

Turning to `C#CC[N+](C)(C)[C@H]1C[C@@H](C)O[C@@H](O[C@@H]2[C@@H](C)[C@H](O[C@H]3C[C@@](C)(OC)C[C@H](C)O3)[C@@H](C)C(=O)O[C@H](CC)[C@@](C)(O)[C@H](O)[C@@H](C)C3=C(C)C[C@@]2(C)O3)[C@@H]1O` [Example 5, 8,9-anhydro-4"-deoxy-3'-N-propargylerythromycin A-6,9-hemiketal bromide], the EC50 is 22.9 nM and the “Relative Potency” value amounted to 62.

With `CC[C@H]1OC(=O)[C@H](C)[C@@H](O[C@H]2C[C@@](C)(OC)C[C@H](C)O2)[C@H](C)[C@@H](O[C@@H]2O[C@H](C)C[C@H](NC)[C@H]2O)[C@@]2(C)CC(C)=C(O2)[C@H](C)[C@@H](O)[C@H]1C` [Example 6, 8,9-anhydro-4"-deoxy-3'-N-desmethylerythromycin B-6,9-hemiketal], the “Relative Potency” value is recorded as over 8000. For the same compound, where the note is “footnote a of Table 2”, the “Endpoint (pED50) could not be obtained, potency in words” value was “extremely high potency”.

For the compound `C#CC[N+](C)(C)[C@H]1C[C@@H](C)O[C@@H](O[C@@H]2[C@@H](C)[C@H](O[C@H]3C[C@@](C)(OC)C[C@H](C)O3)[C@@H](C)C(=O)O[C@H](CC)[C@H](C)[C@H](O)[C@@H](C)C3=C(C)C[C@@]2(C)O3)[C@@H]1O` [Example 8, 8,9-anhydro-4"-deoxy-3'-N-propargylerythromycin B-6,9-hemiketal bromide], the EC50 is 50.1 nM and the “Relative Potency” value amounted to 28.

As for `CC[C@H]1OC(=O)[C@H](C)[C@@H](O[C@H]2C[C@@](C)(OC)C[C@H](C)O2)[C@H](C)[C@@H](O[C@@H]2O[C@H](C)C[C@H](NC)[C@H]2O)[C@@]2(C)C[C@H](C)C(O2)[C@H](C)[C@@H](O)[C@]1(C)O` [Example 10, 9-deoxo-3'-N-desmethyl-4",6-dideoxy-8-epi-6,9-epoxyerythromycin A], the EC50 was 17.8 nM and the “Relative Potency” value came out at 79.

Consider `C#CC[N+](C)(C)[C@H]1C[C@@H](C)O[C@@H](O[C@@H]2[C@@H](C)[C@H](O[C@H]3C[C@@](C)(OC)C[C@H](C)O3)[C@@H](C)C(=O)O[C@H](CC)[C@@](C)(O)[C@H](O)[C@@H](C)C3O[C@]2(C)C[C@@H]3C)[C@@H]1O` [Example 12, 9-deoxo-4",6-dideoxy-8-epi-6,9-epoxy-3'-N -propargylerythromycin A bromide], for which the EC50 is 23.4 nM and the “Relative Potency” value is reported as 60.

As to `CC[C@H]1OC(=O)[C@H](C)[C@@H](O[C@H]2C[C@@](C)(OC)C[C@H](C)O2)[C@H](C)[C@@H](O[C@@H]2O[C@H](C)C[C@H](N(C)C)[C@H]2O)[C@@]2(C)C[C@@H](C)C(O2)[C@H](C)[C@@H](O)[C@]1(C)O` [Example 13, 9-deoxo-4",6-dideoxy-6,9-epoxyerythromycin A], the EC50 is 0.166 nM and the “Relative Potency” value is on record as 8,511.

In the case of `CC[C@H]1OC(=O)[C@H](C)[C@@H](O[C@H]2C[C@@](C)(OC)C[C@H](C)O2)[C@H](C)[C@@H](O[C@@H]2O[C@H](C)C[C@H](NC)[C@H]2O)[C@@]2(C)C[C@@H](C)C(O2)[C@H](C)[C@@H](O)[C@]1(C)O` [Example 14, 9-Deoxo-4',6-Dideoxy-3'-N-Desmethyl-6,9-Epoxyerythromycin A], the EC50 is 70.8 nM and the “Relative Potency” value is 20.

Regarding `C#CC[N+](C)(C)[C@H]1C[C@@H](C)O[C@@H](O[C@@H]2[C@@H](C)[C@H](O[C@H]3C[C@@](C)(OC)C[C@H](C)O3)[C@@H](C)C(=O)O[C@H](CC)[C@@](C)(O)[C@H](O)[C@@H](C)C3O[C@]2(C)C[C@H]3C)[C@@H]1O` [Example 16, 9-deoxo-4",6-dideoxy-6,9-epoxy-3'-N-propargylerythromycin A bromide], the EC50 is 40.7 nM and the “Relative Potency” value is on record as 35.

As to `CC[C@H]1OC(=O)[C@H](C)[C@@H](O[C@H]2C[C@@](C)(OC)[C@@H](O)[C@H](C)O2)[C@H](C)[C@@H](O[C@@H]2O[C@H](C)C[C@H](N(C)C)[C@H]2O)[C@](C)(O)C[C@@H](C)C(=O)[C@H](C)[C@@H](O)[C@]1(C)O` [erythromycin A, reference compound], the EC50 is 1410 nM.
